Test results: paper PMC3842230 (Biochemistry, 2013)

Test system: Escherichia coli BL21 Δ7 cells
Assay: cells
Assay type: cell-based
Conditions: BL21, 5 h, read-out: IC50 (toxic to cell growth)

Compound: COc1cccc2c1C(=O)c1c(O)c3c(c(O)c1C2=O)C[C@@](O)(C(=O)CO)C[C@@H]3O[C@H]1C[C@H](N)[C@H](O)[C@H](C)O1 [Doxorubicin, doxorubicin]
- IC50: ~1000 nM
